Columns and labels:
[1] = in vivo
[2] = system: ZFHD1-FKBPx3 and FRAP-p65; assay: Rapamycin-dependent hGH expression in transfected HT1080 cells in culture; assay type: cell-based; conditions: HT1080 cells in cell culture
Description: (§1) Using the approach described in Example 7, constructs were prepared encoding the ZFHD1-FKBPx3 fusion protein, a second fusion protein containing the FKBP:rapaymcin binding (“FRB”) region of FRAP linked to the p6^5 activation domain, and a reporter cassette containing a gene encoding human growth hormone linked to multiple ZFHD1 binding sites. The natural product, rapamycin, forms a ternary complex with FKBP12 and FRAP. Similarly, rapamycin is capable of binding to one or more of the FKBP domains and FRAP FRB domains of the fusion proteins.

[3] = system: ZFHD1-FKBPx3 and FRAP-p65; assay: Rapamycin-dependent hGH expression in nu/nu mice implanted with transfected cells; assay type: in vivo; conditions: rapamycin i.v. 10-10,000 μg/kg, serum 17 hours after administration
Description: as §1
2×10^6 cells from the transfected […] culture were administered to nu/nu mice by intramuscular injection. Following cell implantation, rapamycin was administered i.v. over a range of doses (from 10-10,000 μg/kg). Serum samples were collected from the mice 17 hours after rapamycin administration. Control groups consisted of mice that received no cells but 1.0 mg/kg rapamycin (i.v.) as well as mice that received the cells but no rapamycin.

[4] = system: myristoylated chimeric CD3/FKBP12 (MZF3E) receptor; assay: FK1012 activation of myristoylated chimeric CD3/FKBP12 (MZF3E) receptor, NFAT SEAP reporter in Jurkat T cells; assay type: cell-based, human
Text: In an illustrative case, this was accomplished by creating an intracellular receptor comprised of a small fragment of Src sufficient for posttranslational myristoylation (M), the cytoplasmic tail of zeta (Z; a component of the […] was also used), three consecutive FKBP12s (F3) and a flu epitope tag (E). […] The promoter of the SEAP reporter gene was constructed to be transcriptionally activated by nuclear factor of activated T cells (NFAT), which is assembled in the nucleus following TCR-signaling.
Specifically, 5 μg of the eukaryotic expression vector, pBJ5, containing a myristoylated chimeric receptor was co-transfected with 4 μg NFAT-SX. MZE, MZF1E, MZF2E and MZF3E contain 0, 1, 2, or 3 copies of FKBP12, respectively, downstream of a myristoylated CD3 cytoplasmic domain (see FIG. 2 of PCT/US94/01617). As a control, 5 μg of pBJ5 was used in a parallel transfection. After 24 hours, aliquots of each transfection containing approximately 10^5 cells were incubated with log dilutions of the drug, FK1012B, as indicated. As a positive control and to control for transfection efficiency, ionomycin (1 μm) and PMA (25 ng/ml) were added to aliquots from each transfection. After an additional 12 hour incubation, the supernatants were assayed for alkaline phosphatase activity and these activities were expressed relative to that of the positive control samples. […] Compare FIGS. 7 and 8 of PCT/US94/01617.

cells = assay: Toxicity in cell culture; assay type: cell-based
MZF3Eflu and MZF3Eflag = assay: Coimmunoprecipitation of epitope-tagged chimeras in Jurkat T cells (in vivo FK1012-induced protein dimerization); assay type: cell-based, human
Description: The following experiments confirmed that intracellular aggregation of the MZF3E receptor is indeed induced by the FK1012. The influenza haemagglutinin epitope-tag (flu) of the MZF3E-construct was exchanged with a different epitope-tag (flag-M2). The closely related chimeras, MZF3Eflu and MZF3Eflag, were coexpressed in Jurkat T cells. Immunoprecipitation experiments using anti-Flag-antibodies coupled to agarose beads were performed after the cells were treated with FK1012A. […] In absence of FK1012A, no coimmunoprecipitation of MZF3Eflu is observed. […] This reflects the requirement for aggregation observed with both the endogenous T cell receptor and our artificial receptor MZF3E.

zeta-chain = assay: In vitro kinase assay after immunoprecipitation, Jurkat cells stably transfected with MZF3E; assay type: cell-based, human

Question: For hGH: human growth hormone, which hGH clearance half-life [1] is on record?
Answer: The hGH clearance half-life was “less than 2 minutes”.

Question: And the “time to undetectable hGH levels” value [1]?
Answer: Its value is no more than 30 min.

Question: For `CO[C@H]1C[C@@H]2CC[C@@H](C)[C@@](O)(O2)C(=O)C(=O)N2CCCC[C@H]2C(=O)O[C@H]([C@H](C)C[C@@H]2CC[C@@H](O)[C@H](OC)C2)CC(=O)[C@H](C)/C=C(\C)[C@@H](O)[C@@H](OC)C(=O)[C@H](C)C[C@H](C)/C=C/C=C/C=C/1C` [rapamycin], which “rapamycin-dependent expression of the hGH gene” value [2] is on record?
Answer: The value was “support rapamycin-dependent expression of the hGH gene in cell culture”.

Question: And the “expression of hGH (circulating hGH)” value [3]?
Answer: The value was “Dose-responsive expression of hGH was observed”.

Question: Which “termination of FK1012-induced signaling” value [4] does the source give for `CO[C@H]1C[C@@H](C)C/C(C)=C/[C@@H](CCOC(=O)NCc2ccccc2)C(=O)C[C@H](O)[C@@H](C)[C@@H](/C(C)=C/[C@@H]2CC[C@@H](O)[C@H](OC)C2)OC(=O)[C@@H]2CCCCN2C(=O)C(=O)[C@]2(O)O[C@H]1[C@@H](OC)C[C@H]2C` [FK506-M] here?
Answer: The value was “can be terminated by a deaggregation process”.

Question: And the toxicity to cells (cells)?
Answer: Its toxicity to cells is “nontoxic”.

Question: Which results are given for `CO[C@H]1C[C@@H](C)C/C(C)=C/[C@@H](CCOC(=O)NCc2ccc(CNC(=O)OCC[C@@H]3/C=C(\C)C[C@H](C)C[C@H](OC)[C@H]4O[C@@](O)(C(=O)C(=O)N5CCCC[C@H]5C(=O)O[C@H](/C(C)=C/[C@@H]5CC[C@@H](O)[C@H](OC)C5)[C@H](C)[C@@H](O)CC3=O)[C@H](C)C[C@@H]4OC)cc2)C(=O)C[C@H](O)[C@@H](C)[C@@H](/C(C)=C/[C@@H]2CC[C@@H](O)[C@H](OC)C2)OC(=O)[C@@H]2CCCCN2C(=O)C(=O)[C@]2(O)O[C@H]1[C@@H](OC)C[C@H]2C` [FK1012]?
Answer: dimerization of FKBP monomer constructs MZF1Eflu and MZF1Eflag (MZF3Eflu and MZF3Eflag): also dimerized by FK1012A; coimmunoprecipitation of MZF3Eflu with MZF3Eflag (MZF3Eflu and MZF3Eflag; FK1012A 1 μM, anti-Flag agarose beads): is coimmunoprecipitated with MZF^3Eflag; recruitment of kinase activity to the zeta-chain (zeta-chain): resulted in the recruitment of kinase activity to the zeta-chain
